Marks after values point to notes of the source that are not given here.
Legend:
Assay type in all cases: in vivo, human
[1] = test system: healthy middle-aged men and women; assay: Hangover cure and rehabilitation effect after excessive drinking of red wine (self-rated discomfort level); settings: 1 cysteine tablet (1200 mg L-cysteine) before dinner
Description: (§1) Thirty-six healthy middle-aged men and women were chosen and divided into four groups, namely, the control group, the cysteine group, the 5 g oligopeptide nutrition group (prepared in Example 3) and the 10 g oligopeptide nutrition group (prepared in Example 3), and they experienced the hangover cure and rehabilitation effect of the oligopeptide nutritional powder for excessive drinking of red wine. Ten to twenty minutes before dinner, 150 mL of plain boiled water at a temperature of 35° C. was prepared for each person. In the control group, the subjects only drank plain boiled water; in the cysteine group, the subjects took 1 cysteine tablet (each comprising 1200 mg L-cysteine, produced by U.S. Now Food) when drinking water; in the 5 g oligopeptide nutritional group, the subjects put 5 g of the oligopeptide nutritional powder into a cup, poured 150 mL of plain boiled water, stirred to dissolve and drink; in the 10 g oligopeptide nutritional group, the subjects put 10 g of the oligopeptide nutritional powder into a cup, poured 150 mL of plain boiled water, stirred to dissolve and drink.
Dinners started at 18:00 and ended at 20:00. Each of 36 subjects drank 400 mL of red wine (France Saint Arnaud Cabernet Sauvignon 2015, 13.5% vol. Cabernet Sauvignon). […] All subjects' forms were collected, and the subjects' conditions were recorded and analyzed by classification.

[2] = Effect on blood alcohol content after drinking liquor or red wine (breath alcohol tester)
Description: Thirty healthy middle-aged men and women were chosen and divided into three groups, namely, the control group, the cysteine group and the 10 g oligopeptide nutrition group. After drinking liquor and red wine, the effects of the oligopeptide nutritional powder on the blood alcohol contents were compared. Ten to twenty minutes before dinner, 150 mL of plain boiled water at a temperature of 35° C. was prepared for each person. In the control group, the subjects only drank plain boiled water; in the cysteine group, the subjects took 1 cysteine tablet (each comprising 1200 mg L-cysteine, produced by U.S. Now Food) when drinking water; in the 10 g oligopeptide nutritional group, the subjects put 10 g of the oligopeptide nutritional powder into a cup, poured 150 mL of plain boiled water, stirred to dissolve and drink.
Dinners started at 18:00 and ended at 20:00. Each of 30 subjects drank 200 mL of liquor (Kweichow Moutai Liquor 2018, 53% vol. 106 PROOF) or 400 mL of red wine (France Saint Arnaud Cabernet Sauvignon 2015, 13.5% vol. Cabernet Sauvignon) within two hours. The subjects' dinners were mainly Chinese stir-fried dishes, including fish, meat and vegetables, with rice as the staple food, and the dinners lasted two hours. Every 30 minutes after the start of drinking, the breath alcohol tester (Mr. Black-03) was used to test the blood alcohol content of each subject for four hours, then test once every two hours; on the 16th hour after drinking, the test was over. The data of the subjects were recorded separately, and the statistical analysis of data was performed by groups. The blood alcohol metabolism curve of each group was completed by Gaussian Fitting method. For oligopeptide nutritional powder, after 4 hours of excessive drinking of liquor and red wine, namely, 2 hours after the end of meals, the blood alcohol content was measured, as shown in Table 3.

[3] = test system: healthy middle-aged men and women; assay: Summary of hangover cure and rehabilitation effects on excessive drinking of liquor and red wine; settings: liquor and red wine summarised, 1200 mg cysteine
Description: as §1, with “3).” for “3), and they experienced the hangover cure and rehabilitation effect of the oligopeptide nutritional powder for excessive drinking of red wine.”, “dinner (at time 18:00),” for “dinner,”, “person in advance.” for “person.”
Dinners started at 18:00 and ended at 20:00. Each of 36 subjects drank 200 mL of liquor (Kweichow Moutai Liquor 2018, 53% vol. 106 PROOF) within two hours. The subjects' dinners were mainly Chinese stir-fried dishes, including fish, meat and vegetables, with rice as the staple food, and the dinners lasted two hours. In the next morning at 8:00 (12 hours after drinking) and in the third morning at 8:00 (36 hours after drinking), the subjects filled in the forms, indicating personal feelings. The personal feelings included 5 levels, namely, level 0 indicated no discomfort, level 1 indicated slight tiredness, level 2 indicated feeling of dizziness, level 3 indicated headache, level 4 indicated nausea or vomiting, requiring stay in bed. All subjects' forms were collected, and the subjects' conditions were recorded and analyzed by classification.
Thirty-six healthy middle-aged men and women were chosen and divided into four groups, namely, the control group, the cysteine group, the 5 g oligopeptide nutrition group (prepared in Example 3) and the 10 g oligopeptide nutrition group (prepared in Example 3), and they experienced the hangover cure and rehabilitation effect of the oligopeptide nutritional powder for excessive drinking of red wine. Ten to twenty minutes before dinner, 150 mL of plain boiled water at a temperature of 35° C. was prepared for each person. […]
Dinners started at 18:00 and ended at 20:00. […] All subjects' forms were collected, and the subjects' conditions were recorded and analyzed by classification.

[4] = test system: healthy middle-aged men and women; assay: Hangover cure and rehabilitation effect after excessive drinking of liquor (self-rated discomfort level); settings: 1 cysteine tablet (1200 mg L-cysteine) before dinner
Description: as §1, with “3).” for “3), and they experienced the hangover cure and rehabilitation effect of the oligopeptide nutritional powder for excessive drinking of red wine.”, “dinner (at time 18:00),” for “dinner,”, “person in advance.” for “person.”
Dinners started at 18:00 and ended at 20:00. Each of 36 subjects drank 200 mL of liquor (Kweichow Moutai Liquor 2018, 53% vol. 106 PROOF) within two hours. […] All subjects' forms were collected, and the subjects' conditions were recorded and analyzed by classification.

Structure (SMILES): N[C@@H](CS)C(=O)O [cysteine tablets, L-cysteine]
- subjects with obvious discomfort (>2 degree of discomfort) ([1]; 12 hours after drinking 400 mL red wine): 44.4%
- subjects with obvious discomfort ([1]; 36 hours after drinking 400 mL red wine): 22.2%
- Blood alcohol content 4 hours after drinking liquor ([2]; 200 mL liquor, 1200 mg cysteine before dinner, breath alcohol tester): 42.3 ± 3.1^b mg/100 mL
- Blood alcohol content 4 hours after drinking red wine ([2]; 400 mL red wine, 1200 mg cysteine before dinner, breath alcohol tester): 38.7 ± 6.8^ab mg/100 mL
- blood alcohol content versus alcohol content threshold for drunk driving ([2]; within 4 hours of drinking liquor or red wine, cysteine group (1200 mg)): > 20 mg/100 mL
- Proportion of > degree 2 discomfort 12 hours after drinking wine [3]: 44.4%
- Proportion of > degree 2 discomfort 12 hours after drinking wine ([3]; listed as Cysteine): 44.4%^b
- Proportion of > degree 2 discomfort 36 hours after drinking wine ([3]; listed as Cysteine): 22.2%^a
- Proportion of > degree 2 discomfort 36 hours after drinking wine ([3]; listed as cysteine): 22.2%
- subjects with obvious discomfort (>2 degree of discomfort) ([4]; 12 hours after drinking 200 mL liquor): 44.4%
- subjects with obvious discomfort ([4]; 36 hours after drinking 200 mL liquor): 22.2%
